The results in this text go back to patent US20150065421A1, “BASAL INSULIN THERAPY” (SANOFI, priority 2012, published 2015).

Format in all cases: in vivo, human
Data set [1] has as its system people at high risk for vascular disease with either IFG, IGT, or early type 2 diabetes. The experiment in a line: ORIGIN trial: cognition outcomes (Mini-Mental Status Exam). An excerpt:
Defined by serial cognitive testing (e.g., mini-mental status examination [MMSE]).
Overall, there was a strong trend (p=0.075) for glargine treatment to be associated with fewer impaired patients. The data, as summarized in Table 7, reflect the Mini-Mental Status Exam (MMSE) data for the number of participants scoring 24 or less at various timepoints (mild impairment). These patients were examined because they represent those at greater risk of further deterioration during the study, and still with enough patients to confer adequate power to make statistical comparisons. There was a significant reduction of cases of mild impairment from baseline at about 4 years.

In data set [2] the test system is participants without diabetes at randomization (IFG and/or IGT). Briefly: ORIGIN trial: new type 2 diabetes in participants without baseline diabetes (oral glucose tolerance tests). An excerpt:
(§1) Participants were asked to self-administer daily subcutaneous saline injections and to check their capillary glucose levels during a 10 day run-in period. Adherent participants were then provided with lifestyle advice and randomly allocated to either insulin glargine (Lantus™) or standard approaches to glycaemic control. Participants allocated to insulin glargine who were also taking a thiazolidinedione stopped that medication at the time of randomization; otherwise the insulin glargine was added to their glycemic regimen. These participants were instructed to inject insulin glargine in the evening, starting at 2, 4 or 6 units (depending on their initial FPG) and to increase the dose at least once per week targeting a self-measured FPG level ≦5.3 mmol/l (95 mg/dl) and ≧4 mmol/l (72 mg/dl). […] If participants developed uncontrolled hyperglycemia, investigators were permitted to add rapid-acting insulin. No other glucose-lowering medication could be added or increased. FPG levels were measured in the local laboratory at every visit and the results were regularly reviewed along with the dose of insulin to ensure that insulin was being effectively trirated. People not diagnosed with diabetes by the time of the penultimate study visit down-titrated insulin glargine by 10 units per day and stopped any metformin that was prescribed.
There were 2 co-primary composite CV outcomes. The first was CV death, non-fatal MI or non-fatal stroke, and the second was a composite of any of these events or a revascularization procedure or hospitalization for heart failure. Secondary outcomes included a composite microvascular outcome comprising a doubling of serum creatinine from baseline, progression of albuminuria category from normoalbuminuria or microalbuminuria to microalbuminuria or overt nephropathy, renal replacement therapy, renal death, retinal photocoagulation or vitrectomy for retinopathy. They also included new type 2 diabetes developing by the time of the 1st post-trial oral glucose tolerance test in participants without baseline diabetes, and all-cause mortality. Other outcomes included incident cancers, CV hospitalizations, and angina. Cardiovascular and cancer outcomes were reviewed by adjudicators masked to treatment allocation. Episodes of hypoglycaemia since the prior visit were recorded at each visit. Symptomatic hypoglycemia was classified as confirmed if a concomitant recorded capillary glucose level was <3 mmol/L (54 mg/dL). Severe hypoglycemia was defined as hypoglycemia that required assistance plus either prompt recovery with glucose or glucagon or a documented capillary glucose ≦2.0 (36 mg/dL). New diabetes was diagnosed if 2 consecutive FPG levels within a 4-month period were ≧7 mM (126 mg/dL) during the trial; a diagnosis of diabetes was made by a physician and a pharmacologic antidiabetic agent was being taken and there was evidence of either a FPG ≧7 mM (126 mg/dL) or any glucose value ≧11.1 mM (200 mg/dL); either 1 or more capillary glucose levels were ≧11.1 mM (200 mg/dl) and a lab-measured FPG was ≧7 mmol/l (126 mg/dl) or a lab measured random glucose level was ≧11.1 mM (200 mg/dl) during down-titration of glargine insulin; or any FPG was ≧7 mM (126 mg/dl) or 2 hour plasma glucose was ≧11.1 mM (200 mg/dl) during the first oral glucose tolerance test.
Data were analyzed using SAS (version 9.1 for Solarus) according to an intention-to-treat approach described in the protocol and a predefined statistical analysis plan. […] Baseline characteristics were summarized using means and standard deviatons, medians and interquartile ranges, or counts and percentages as appropriate. Time-to-event curves were constructed using product limit estimation and compared using stratified log-rank tests. Hazard ratios for each outcome were calculated using Cox regression models adjusted for the factorial allocation, baseline diabetes status and a history of a prior CV event before randomization as described in the protocol. […]

Data set [3] relates to people at high risk for vascular disease with either IFG, IGT, or early type 2 diabetes. The experiment in a line: ORIGIN trial: cardiovascular, mortality and cancer outcomes.
Description: The ORIGIN study was an international, multicenter, randomized, open-label (for insulin glargine versus standard care), double-blind (for omega-3 PUFA versus placebo), 2×2 factorial design study to evaluate whether patients with IGT, IFG, or early T2DM, who were at high risk for macrovascular events, could be safely treated with insulin glargine and omega-3 PUFA, and if either insulin glargine-mediated normoglycemia and/or omega-3 PUFA reduce or prevent CV morbidity and/or mortality. Patients were randomized to either receive insulin glargine treatment as a titrated regimen which targeted fasting plasma glucose (FPG) of 95 mg/dL or standard care according to current guidelines for dysglycemia accompanied by appropriate lifestyle modifications. Patients were also independently randomized to receive either ethyl esters of omega-3 PUFA or matching placebo.
Patients were to be randomly assigned to receive either insulin glargine treatment or standard care for their dysglycemia. Patients randomized to the insulin glargine group received Lantus® (insulin glargine 100 U/mL solution) once daily (QD) by subcutaneous (SC) injection in a titrated regimen targeting an FPG of […] (5.3 mmol/L). Nondiabetic patients randomized to standard care were followed for the development of diabetes, and were encouraged to continue to modify diet and physical activity levels. Blood glucose management of diabetic patients (or nondiabetic patients who developed diabetes during the study) randomized to standard care was to be performed according to current (at that time) guidelines. All patients were to be encouraged to appropriately modify their lifestyle.
ORIGIN was an international randomized factorial trial of the effect of titrated basal insulin therapy versus standard care and of omega 3 fasty acid supplements versus placebo on incident CV outcomes. Results of the omega 3 fatty acid arm are reported separately (REF). […] The HbA1c level of people with prior diabetes had to be low enough to minimize the likelihood that insulin would be needed to maintain glycemic control during follow-up if allocated to standard care. Key exclusion criteria included unwillingess or an inability to inject insulin or do capillary glucose testing, a clear indication for, or intolerance to insulin or omega 3 fatty acids, unwillingness to stop thiazolidinediones if allocated to glargine, heart failure, or coronary artery bypass surgery within the prior 4 years with no intervening CV event. The study was approved by each site's ethics committee and all participants provided written informed consent.
as §1
There were 2 co-primary composite CV outcomes. […]

[4] abbreviates: glargine group, 6-7 years exposure, p=0.02 vs standard care.
Setting [5] is: insulin glargine group, median follow-up 6.2 years.
The mark [6] stands for this setting: insulin glargine vs standard care.

As to “(Gly A21) Arg (B31) Arg (B32) human insulin [insulin glargine]”, the “participants scoring 24 or less in MMSE (mild impairment), N (%)” value (from here on “participants scoring 24 or less … (%)”) in data set [1] (2 years, P 0.823 vs standard, baseline 483 (7.7)) was 433 (7.6) N (%). Also, the “participants scoring 24 or less … (%)” value in data set [1] (Any measure, P 0.075 vs standard) was 605 (10.4) N (%). Moreover, the “participants scoring 24 or less … (%)” value in data set [1] (End of study, P 0.358 vs standard) was 464 (9.6) N (%). Moreover, the “participants scoring 24 or less … (%)” value in data set [1] (~4 years, P 0.022 vs standard) is reported as 449 (9.0) N (%). Moreover, in data set [2] (confirmed plus suspected, unconfirmed cases), the “reduction of incidence of new diabetes including suspected cases” value is given as 30%. The “OR for protocol-defined new diabetes” value in data set [2] (glargine vs standard care, 95% CI 0.58, 0.92, P=0.007) was determined as 0.73. Also, the “OR for new diabetes after 2nd OGTT” value in data set [2] (glargine vs standard care, 95% CI 0.64, 1.00, P=0.052) is 0.80. The “incidence of new diabetes including suspected cases” value in data set [2] (insulin glargine group) stood at 35%. Also, the “total rate of diabetes after repeated (2nd) OGTT” value in data set [2] (insulin glargine group, median 100 days after insulin was stopped) is on record as 30%. Also, the “participants developing protocol-defined diabetes” value in data set [2] (insulin glargine group, up to 1st post-trial OGTT) was 25%. In addition, in data set [2] (up to 1st post-trial OGTT), the “less likely to develop protocol-defined diabetes than standard care participants” value worked out at 27%. For the same substance, in data set [3] (setting [4]), the “patients who developed a new angina (number)” value is on record as 100 patients and the “patients who developed a new angina (percent)” value is reported as 1.6%. Also, in data set [3] (setting [5]), the “incidence of the composite outcome of nonfatal MI, nonfatal stroke or CV death (first co-primary outcome)” value is reported as 2.94 /100 person-years and the “incidence of the second co-primary outcome (first plus revascularization or heart failure hospitalization)” value is reported as 5.53 /100 person-years. In data set [3] (setting [6]), the “incidence of any cancer or cancer death, difference to standard care” value is “no difference” and the “mortality, difference to standard care” value is reported as “no statistically significant difference”. The “adjusted HR, first co-primary outcome” value in data set [3] (insulin glargine vs standard care, 95% CI 0.88, 1.12, P=0.9) was found to be 0.99. Moreover, the “adjusted HR, second co-primary outcome” value in data set [3] (insulin glargine vs standard care, 95% CI 0.91, 1.10, P=0.99) is recorded as 1.00.
